How the values were obtained:
[1] = system: Trypanosoma brucei gambiense; assay: Trypanocidal activity against Trypanosoma brucei gambiense IL1922 incubated for 72 hrs by CellTiter-Glo reagent based […] analysis; type: functional, organism-based; settings: IL1922, 72 h
[2] = system: Trypanosoma congolense; assay: Trypanocidal activity against Trypanosoma congolense IL3000 incubated for 72 hrs by CellTiter-Glo reagent based […] analysis; type: functional, organism-based; settings: IL3000, 72 h
[3] = system: Trypanosoma evansi; assay: Trypanocidal activity against Trypanosoma evansi Tansui incubated for 72 hrs by CellTiter-Glo reagent based […] analysis; type: functional, organism-based
[4] = system: Trypanosoma equiperdum; assay: Trypanocidal activity against Trypanosoma equiperdum IVM-t1 incubated for 72 hrs by CellTiter-Glo reagent based […] analysis; type: functional, organism-based; settings: IVM-t1, 72 h
[5] = Cytotoxicity against green monkey Vero cells incubated for 48 hrs by resazurin dye based assay; type: toxicity, cell-based; settings: African green monkey (Chlorocebus sabaeus)
[6] = Cytotoxicity against human […]-differentiated THP-1 cells incubated for 72 hrs by resazurin dye based assay; type: toxicity, cell-based
[7] = system: Leishmania donovani; assay: Antileishmanial activity against Leishmania donovani 9515 (MHOM/IN/95/9151) promastigote incubated for 48 hrs by resazurin dye based plate reader assay; type: functional, organism-based
[8] = system: Leishmania donovani; assay: Antileishmanial activity against Leishmania donovani 9515 (MHOM/IN/95/9151) amastigote infected in THP-1 cells assessed as inhibition of parasite growth incubated for 72 hrs by resazurin dye based plate reader assay; type: functional, organism-based; settings: THP-1, 72 h
[9] = system: Leishmania donovani; assay: Leishmanicidal activity against Leishmania donovani 9515 (MHOM/IN/95/9151) amastigote infected in THP-1 cells incubated for 72 hrs by resazurin dye based plate reader assay; type: functional, organism-based; settings: THP-1, 72 h
[10] = Cytotoxicity against MDBK cells incubated for 72 hrs by CCK8 assay; type: toxicity, cell-based, Bos taurus; settings: cattle, MDBK cells
[11] = system: Trypanosoma brucei rhodesiense; assay: Trypanocidal activity against Trypanosoma brucei rhodesiense IL1501 incubated for 72 hrs by CellTiter-Glo reagent based […] analysis; type: functional, organism-based; settings: IL1501, 72 h
[12] = system: Trypanosoma brucei brucei; assay: Trypanocidal activity against Trypanosoma brucei brucei GUTat3.1 incubated for 72 hrs by CellTiter-Glo reagent based […] analysis; type: functional, organism-based; settings: GUTat3.1, 72 h
[13] = Selectivity index, ratio of IC50 for african green monkey Vero cells to IC50 for Leishmania donovani 9515 (MHOM/IN/95/9151) promastigote; type: toxicity, cell-based; settings: read-out: Ratio IC50
[14] = Selectivity index, ratio of IC50 for human THP-1 cells to IC50 for Leishmania donovani 9515 (MHOM/IN/95/9151) promastigote; type: toxicity, cell-based; settings: read-out: Ratio IC50
[15] = Selectivity index, ratio of IC50 for african green monkey Vero cells to IC50 for static antileishmanial activity against Leishmania donovani 9515 (MHOM/IN/95/9151) amastigote; type: toxicity, cell-based; settings: read-out: Ratio IC50
[16] = Selectivity index, ratio of IC50 for human THP-1 cells to IC50 for static antileishmanial activity against Leishmania donovani 9515 (MHOM/IN/95/9151) amastigote; type: toxicity, cell-based; settings: read-out: Ratio IC50
[17] = Selectivity index, ratio of IC50 for african green monkey Vero cells to IC50 for leishmanicidal activity against Leishmania donovani 9515 (MHOM/IN/95/9151) amastigote; type: toxicity, cell-based; settings: read-out: Ratio IC50
[18] = Selectivity index, ratio of IC50 for human THP-1 cells to IC50 for leishmanicidal activity against Leishmania donovani 9515 (MHOM/IN/95/9151) amastigote; type: toxicity, cell-based; settings: read-out: Ratio IC50
[19] = Selectivity index, ratio of CC50 for MDBK to IC50 for Trypanosoma brucei rhodesiense IL1501; type: toxicity, cell-based; settings: cattle, MDBK cells; read-out: Ratio CC50/IC50
[20] = Selectivity index, ratio of CC50 for MDBK to IC50 for Trypanosoma brucei gambiense IL1922; type: toxicity, cell-based; settings: cattle, MDBK cells; read-out: Ratio CC50/IC50
[21] = Selectivity index, ratio of CC50 for MDBK to IC50 for Trypanosoma brucei brucei GUTat3.1; type: toxicity, cell-based; settings: cattle, MDBK cells; read-out: Ratio CC50/IC50
[22] = Selectivity index, ratio of CC50 for MDBK to IC50 for Trypanosoma equiperdum IVM-t1; type: toxicity, cell-based; settings: cattle, MDBK cells; read-out: Ratio CC50/IC50
[23] = Selectivity index, ratio of CC50 for MDBK to IC50 for Trypanosoma evansi Tansui; type: toxicity, cell-based; settings: cattle, MDBK cells; read-out: Ratio CC50/IC50
[24] = Selectivity index, ratio of CC50 for MDBK to IC50 for Trypanosoma congolense IL3000; type: toxicity, cell-based; settings: cattle, MDBK cells; read-out: Ratio CC50/IC50

Structure (SMILES) | IC50 [1] [µM] | IC50 [2] [µM] | IC50 [3] [µM] | IC50 [4] [µM] | IC50 at 48 h [5] [µM] | IC50 at 72 h [6] [µM] | IC50 [7] [µM] | IC50 [8] [µM] | IC50 [9] [µM] | CC50 at 72 h [10] [µM] | IC50 [11] [µM] | IC50 [12] [µM] | other results
N=C(N)c1ccc(OCCCCCOc2ccc(C(=N)N)cc2)cc1 [PENTAMIDINE] | 0.014 | 0.33 | 0.001 | 0.001 | – | – | – | – | – | – | – | – | –
C#CCn1ccc2cc([N+](=O)[O-])ccc21 | > 125 | > 125 | > 125 | > 125 | > 100 | > 100 | > 10 | > 10 | > 10 | > 500 | > 125 | > 125 | –
NCCCC(N)(C(=O)O)C(F)F (stereo unspecified) [EFLORNITHINE] | 36.7 | 16.1 | 57.2 | – | – | – | – | – | – | – | 46 | 38.6 | –
C#CCn1cc(\C=N/N=C/C(C)=C\C)c2cc([N+](=O)[O-])ccc21 | > 81.2 | > 81.2 | > 81.2 | > 81.2 | 84.2 | > 100 | 10.5 | 0.32 | 1.7 | > 281 | > 81.2 | > 81.2 | selectivity ratio [13]: 8; selectivity ratio [14]: 10; selectivity ratio [15]: 226; selectivity ratio [16]: 313; selectivity ratio [17]: 50; selectivity ratio [18]: > 59
C#CCn1cc(/C=N\N=C/CCC)c2cc([N+](=O)[O-])ccc21 | > 84.4 | > 84.4 | > 84.4 | > 84.4 | > 100 | 43.9 | > 10 | > 10 | > 10 | > 338 | 48.5 | > 84.4 | selectivity ratio [19]: > 6.96
C#CCn1cc(/C=N\N=C\C2CCCCC2)c2cc([N+](=O)[O-])ccc21 | 16.1 | > 74.3 | > 74.3 | 21.8 | > 100 | 52.9 | > 10 | 2.85 | > 10 | > 297 | 19.4 | 18.6 | selectivity ratio [15]: > 35; selectivity ratio [16]: 19; selectivity ratio [20]: > 18.4; selectivity ratio [19]: > 15.3; selectivity ratio [21]: > 16; selectivity ratio [22]: > 13.7
C#CCn1cc(/C=N\N=C/CC)c2cc([N+](=O)[O-])ccc21 | 51.6 | > 88.6 | 55.4 | 56.1 | > 100 | > 100 | > 10 | > 10 | > 10 | > 354 | 75.1 | 78.8 | selectivity ratio [20]: > 6.86; selectivity ratio [19]: > 4.72; selectivity ratio [21]: > 4.49; selectivity ratio [23]: > 6.39; selectivity ratio [22]: > 6.3
C#CCn1cc(/C=N\N=C\c2cnc[nH]2)c2cc([N+](=O)[O-])ccc21 | > 78 | 14.8 | > 78 | > 78 | 83.2 | 42.5 | > 10 | > 10 | > 10 | > 312 | > 78 | > 78 | selectivity ratio [24]: > 21
C#CCn1cc(/C=N\N=C\c2ccc([N+](=O)[O-])cc2)c2cc([N+](=O)[O-])ccc21 | > 66.7 | 8.84 | > 66.7 | > 66.7 | 27.5 | 25.7 | > 10 | 9.75 | 3.91 | > 68.2 | > 66.7 | > 66.7 | selectivity ratio [15]: 3; selectivity ratio [16]: 3; selectivity ratio [17]: 7; selectivity ratio [18]: 7; selectivity ratio [24]: > 30.1
C#CCn1cc(/C=N\N=C/C2CC2)c2cc([N+](=O)[O-])ccc21 | > 84.9 | > 84.9 | > 84.9 | > 84.9 | 88.4 | 51.8 | > 10 | > 10 | > 10 | > 340 | > 84.9 | > 84.9 | –
C#CCn1cc(/C=N\N=C\c2cccnc2)c2cc([N+](=O)[O-])ccc21 | > 75.5 | > 75.5 | > 75.5 | > 75.5 | > 100 | > 100 | > 10 | 1.32 | 1.46 | 111 | > 75.5 | > 75.5 | selectivity ratio [15]: > 76; selectivity ratio [16]: 76; selectivity ratio [17]: > 68; selectivity ratio [18]: > 68
C#CCn1cc(/C=N\N=C\c2nccn2C)c2cc([N+](=O)[O-])ccc21 | > 75.5 | 12.8 | > 75.5 | > 75.5 | 54.7 | 29.7 | > 10 | > 10 | > 10 | > 302 | > 75.5 | > 75.5 | selectivity ratio [24]: > 23.5
C#CCn1cc(/C=N\N=C\c2ccccn2)c2cc([N+](=O)[O-])ccc21 | > 75.5 | > 75.5 | > 75.5 | > 75.5 | > 100 | > 100 | > 10 | 1.59 | 3.35 | > 121 | > 75.5 | > 75.5 | selectivity ratio [15]: > 63; selectivity ratio [16]: 63; selectivity ratio [17]: > 30; selectivity ratio [18]: > 30
O=[N+]([O-])c1ccc2[nH]ccc2c1 | – | – | – | – | > 100 | > 100 | > 10 | > 10 | > 10 | – | – | – | –
N=C(N)c1ccc(/N=N/Nc2ccc(C(=N)N)cc2)cc1 [DIMINAZENE DIACETURATE] | – | 0.109 | – | 0.011 | – | – | – | – | – | – | – | – | –
CC1CS(=O)(=O)CCN1/N=C/c1ccc([N+](=O)[O-])o1 (stereo unspecified) [NIFURTIMOX] | 4.58 | – | – | – | – | – | – | – | – | – | – | – | –
C#CCn1cc(/C=N\N=C\c2cccn2C)c2cc([N+](=O)[O-])ccc21 | > 74.8 | > 74.8 | > 74.8 | > 74.8 | – | – | > 10 | > 10 | > 10 | > 299 | > 74.8 | > 74.8 | –
C#CCn1cc(/C=N\N)c2cc([N+](=O)[O-])ccc21 | > 103 | > 3.2 | > 103 | > 103 | 96.8 | 61 | > 10 | > 10 | > 10 | 341 | > 103 | > 103 | –
Cc1ccc(C(=O)Nc2ccc(S(=O)(=O)O)c3cc(S(=O)(=O)O)cc(S(=O)(=O)O)c23)cc1NC(=O)c1cccc(NC(=O)Nc2cccc(C(=O)Nc3cc(C(=O)Nc4ccc(S(=O)(=O)O)c5cc(S(=O)(=O)O)cc(S(=O)(=O)O)c45)ccc3C)c2)c1 [SURAMIN] | – | – | – | 0.038 | – | – | – | – | – | – | – | – | –
C#CCn1cc(C=O)c2cc([N+](=O)[O-])ccc21 | > 110 | > 110 | > 110 | > 110 | > 100 | 77 | > 10 | > 10 | > 10 | > 438 | > 110 | > 110 | –
C#CCn1cc(/C=N\N=C\c2ccncc2)c2cc([N+](=O)[O-])ccc21 | > 75.5 | > 75.5 | > 75.5 | > 75.5 | > 100 | 66.4 | > 10 | > 10 | > 10 | 267 | > 75.5 | > 75.5 | –
C#CCn1cc(/C=N\N=C/C)c2cc([N+](=O)[O-])ccc21 | > 93.2 | > 93.2 | > 93.2 | > 93.2 | 89 | 59.3 | > 10 | > 10 | > 10 | > 373 | > 93.2 | > 93.2 | –

Reference: ChEMBL document CHEMBL6083269, “Design, synthesis, in vitro and in vivo trypanosomaticidal efficacy of novel 5-nitroindolylazines” (Eur J Med Chem, 2024)
